Results reported in PubChem BioAssay (NCI).
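The compound was tested at five concentrations on cells cultured in 96-well plates, with a 48-hour exposure period. GI50 = concentration required for 50% inhibition of growth. The concentration for full growth arrest is given as TGI.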

How the values were obtained:
Assay in all cases: growth of human tumour cells (NCI), 48 h
[1] = tested on: SNB-75 CNS
[2] = tested on: A549 NSCLC
[3] = tested on: UACC-257 melanoma
[4] = tested on: DU-145 prostate
[5] = tested on: HT29 colon
[6] = tested on: SW-620 colon
[7] = tested on: KM12 colon
[8] = tested on: NCI/ADR-RES ovarian
[9] = tested on: K-562 leukemia
[10] = tested on: SK-MEL-28 melanoma
[11] = tested on: LOX IMVI melanoma
[12] = tested on: 786-0 renal
[13] = tested on: SN12C renal
[14] = tested on: U251 CNS
[15] = tested on: UACC-62 melanoma
[16] = tested on: PC-3 prostate
[17] = tested on: SNB-19 CNS
[18] = tested on: RPMI-8226 leukemia
[19] = tested on: HCT-15 colon
[20] = tested on: ACHN renal
[21] = tested on: SF-539 CNS
[22] = tested on: RXF 393 renal
[23] = tested on: MDA-MB-231 breast
[24] = tested on: A498 renal
[25] = tested on: OVCAR-8 ovarian
[26] = tested on: HS 578T breast
[27] = tested on: CCRF-CEM leukemia
[28] = tested on: OVCAR-5 ovarian
[29] = tested on: HOP-62 NSCLC
[30] = tested on: HL-60(TB) leukemia
[31] = tested on: NCI-H23 lung
[32] = tested on: MCF7 breast
[33] = tested on: NCI-H226 lung
[34] = tested on: TK-10 renal
[35] = tested on: BT-549 breast
[36] = tested on: HCT-116 colon
[37] = tested on: MOLT-4 leukemia
[38] = tested on: M14 melanoma
[39] = tested on: UO-31 renal
[40] = tested on: SR leukemia
[41] = tested on: SK-MEL-2 melanoma
[42] = tested on: SF-268 CNS
[43] = tested on: HOP-92 NSCLC
[44] = tested on: NCI-H522 lung
[45] = tested on: OVCAR-4 ovarian
[46] = tested on: SF-295 CNS
[47] = tested on: MALME-3M melanoma
[48] = tested on: SK-OV-3 ovarian
[49] = tested on: MDA-MB-435
[50] = tested on: OVCAR-3 ovarian
[51] = tested on: COLO 205 colon
[52] = tested on: NCI-H460 lung
[53] = tested on: IGROV1 ovarian
[54] = tested on: SK-MEL-5 melanoma
[55] = tested on: HCC-2998 colon
[56] = tested on: CAKI-1 renal

## Cn1cc(-c2ccc(-c3cn(C)c4ccc(Cl)cc34)[nH]2)c2cc(Cl)ccc21
[1]
  GI50: 1750 nM
  TGI: 4380 nM
[2]
  GI50: 1790 nM
  TGI: 4190 nM
[3]
  GI50: 2250 nM
  TGI: 4490 nM
[4]
  GI50: 3570 nM
  TGI: 15300 nM
[5]
  GI50: 3920 nM
  TGI: 16000 nM
[6]
  GI50: 647 nM
  TGI: 3140 nM
[7]
  GI50: 1200 nM
  TGI: 3770 nM
[8]
  GI50: 1840 nM
  TGI: > 100000 nM
[9]
  GI50: 377 nM
  TGI: 2030 nM
[10]
  GI50: 1820 nM
  TGI: 3950 nM
[11]
  GI50: 1220 nM
  TGI: 2670 nM
[12]
  GI50: 5310 nM
  TGI: 29500 nM
[13]
  GI50: 2390 nM
  TGI: 5720 nM
[14]
  GI50: 398 nM
  TGI: 1290 nM
[15]
  GI50: 946 nM
  TGI: 2390 nM
[16]
  GI50: 434 nM
  TGI: 1720 nM
[17]
  GI50: 1390 nM
  TGI: 4060 nM
[18]
  GI50: 356 nM
  TGI: 1310 nM
[19]
  GI50: 1100 nM
  TGI: 2500 nM
[20]
  GI50: 1080 nM
  TGI: 2280 nM
[21]
  GI50: 1140 nM
  TGI: 3450 nM
[22]
  GI50: 882 nM
  TGI: 2310 nM
[23]
  GI50: 442 nM
  TGI: 1980 nM
[24]
  GI50: 4170 nM
  TGI: 19000 nM
[25]
  GI50: 1440 nM
  TGI: 5580 nM
[26]
  GI50: 1140 nM
  TGI: 5370 nM
[27]
  GI50: 373 nM
  TGI: 1700 nM
[28]
  GI50: 663 nM
  TGI: 2820 nM
[29]
  GI50: 2250 nM
  TGI: 7760 nM
[30]
  GI50: 438 nM
  TGI: 2620 nM
[31]
  GI50: 3230 nM
  TGI: 24700 nM
[32]
  GI50: 2850 nM
  TGI: 15400 nM
[33]
  GI50: 1930 nM
  TGI: 4250 nM
[34]
  GI50: 3140 nM
  TGI: 9800 nM
[35]
  GI50: 419 nM
  TGI: 1710 nM
[36]
  GI50: 1990 nM
  TGI: 5620 nM
[37]
  GI50: 2850 nM
  TGI: 11000 nM
[38]
  GI50: 1620 nM
  TGI: 4190 nM
[39]
  GI50: 208 nM
  TGI: 503 nM
[40]
  GI50: 617 nM
  TGI: 3190 nM
[41]
  GI50: 1990 nM
  TGI: 4910 nM
[42]
  GI50: 1380 nM
  TGI: 4090 nM
[43]
  GI50: 1150 nM
  TGI: 3280 nM

## N#CC1=C(N)Oc2c(ccc3ccccc23)C1c1cccs1 (configuration not stated)
[44]
  GI50: 18.5 nM
  TGI: 84.6 nM
[45]
  GI50: 430 nM
  TGI: 18700 nM
[46]
  GI50: 51.1 nM
  TGI: 17000 nM
[2]
  GI50: 61.5 nM
  TGI: 14000 nM
[3]
  GI50: 51.4 nM
  TGI: 22200 nM
[4]
  GI50: 46.3 nM
  TGI: 1030 nM
[5]
  GI50: 53.6 nM
  TGI: 1120 nM
[6]
  GI50: 36.6 nM
  TGI: 15200 nM
[7]
  GI50: 43.4 nM
  TGI: 3450 nM
[8]
  GI50: 36.8 nM
  TGI: 6070 nM
[9]
  GI50: 32.1 nM
  TGI: 12000 nM
[47]
  GI50: 38 nM
  TGI: 24300 nM
[48]
  GI50: 56.5 nM
  TGI: 14700 nM
[11]
  GI50: 79.8 nM
  TGI: 14000 nM
[12]
  GI50: 57.7 nM
  TGI: 11500 nM
[13]
  GI50: 81.6 nM
  TGI: 12900 nM
[14]
  GI50: 40.7 nM
  TGI: 11300 nM
[15]
  GI50: 64.7 nM
  TGI: 15200 nM
[49]
  GI50: 16.8 nM
  TGI: 42 nM
[16]
  GI50: 41 nM
  TGI: 15000 nM
[17]
  GI50: 321 nM
  TGI: 20700 nM
[18]
  GI50: 32.9 nM
  TGI: 3600 nM
[19]
  GI50: 44.2 nM
  TGI: 10900 nM
[20]
  GI50: 84 nM
  TGI: 14800 nM
[21]
  GI50: 26 nM
  TGI: 69.6 nM
[50]
  GI50: 26.9 nM
  TGI: 70.4 nM
[51]
  GI50: 71.6 nM
  TGI: 591 nM
[22]
  GI50: 31.3 nM
  TGI: 21800 nM
[52]
  GI50: 36 nM
  TGI: 662 nM
[23]
  GI50: 140 nM
  TGI: 2720 nM
[24]
  GI50: 23.2 nM
  TGI: 84.3 nM
[53]
  GI50: 82.5 nM
  TGI: 15800 nM
[25]
  GI50: 55 nM
  TGI: 12100 nM
[26]
  GI50: 30.2 nM
  TGI: 14100 nM
[27]
  GI50: 33.7 nM
  TGI: 11400 nM
[28]
  GI50: 129 nM
  TGI: 16500 nM
[29]
  GI50: 58.3 nM
  TGI: 18500 nM
[30]
  GI50: 28.3 nM
  TGI: 79.3 nM
[31]
  GI50: 62.8 nM
  TGI: 12700 nM
[54]
  GI50: 42.7 nM
  TGI: 5200 nM
[55]
  GI50: 132 nM
  TGI: 3890 nM
[56]
  GI50: 46.5 nM
  TGI: 16100 nM
[32]
  GI50: 35.4 nM
  TGI: 13900 nM
[33]
  GI50: 1060 nM
  TGI: 19000 nM
[34]
  GI50: 66.9 nM
  TGI: 20200 nM
[35]
  GI50: 68.8 nM
  TGI: 3090 nM
[36]
  GI50: 50.2 nM
  TGI: 1830 nM
[37]
  GI50: 59.4 nM
  TGI: 14600 nM
[38]
  GI50: 40.5 nM
  TGI: 11900 nM
[39]
  GI50: 69.6 nM
  TGI: 17500 nM
[40]
  GI50: 33.7 nM
  TGI: 7810 nM
[42]
  GI50: 80.7 nM
  TGI: 10100 nM
[43]
  GI50: 57.3 nM
  TGI: 14100 nM
